Experimental data taken from PMC6315564, “Geospallins A–C: New Thiodiketopiperazines with Inhibitory Activity against Angiotensin-Converting Enzyme from a Deep-Sea-Derived Fungus Geosmithia pallida FS140” (Marine Drugs, 2018).

Target: angiotensin-converting enzyme (ACE) (Homo sapiens, UniProt P12821)
Experiment: Angiotensin-converting enzyme (ACE) inhibitory assay (N-hippuryl-His-Leu substrate, HPLC detection of hippuric acid)
Format: biochemical
Conditions: 37 °C, 60 min, captopril positive control, read-out: IC50 against angiotensin-converting enzyme (ACE)
Protocol: ACE inhibitory activity was determined by a previously reported method. In brief, 20 μL thiodiketopiperazines dissolved in DMSO with different concentrations were added to 120 μL N-hippuryl–His–Leu substrates, then preheated in water for 3–5 min; next, 10 μL ACE enzymatic solution was added and mixtures were incubated at 37 °C for 60 min, and 150 μL 1 M HCl was added to stop the reaction. The mixture was loaded for HPLC with a flow rate of 0.5 mL/min by 60% methanol, and the absorbance at 228 nm was detected. To serve as a blank, 10 μL pH 8.3 boric acid replaced the thiodiketopiperazines. Hippuric acid solutions at 10, 20, 40, 60, 80, and 100 μg/mL were prepared using 10 μL pH 8.3 boric acid. One enzymatic unit was defined as the amount giving the production of 1 μM hippuric acid by the catalyzation of the substrate N-hippuryl–His–Leu at 37 °C in 1 min. Captopril was used as a positive control.

Sequence of angiotensin-converting enzyme (ACE) (P12821 30-1306, species assumed): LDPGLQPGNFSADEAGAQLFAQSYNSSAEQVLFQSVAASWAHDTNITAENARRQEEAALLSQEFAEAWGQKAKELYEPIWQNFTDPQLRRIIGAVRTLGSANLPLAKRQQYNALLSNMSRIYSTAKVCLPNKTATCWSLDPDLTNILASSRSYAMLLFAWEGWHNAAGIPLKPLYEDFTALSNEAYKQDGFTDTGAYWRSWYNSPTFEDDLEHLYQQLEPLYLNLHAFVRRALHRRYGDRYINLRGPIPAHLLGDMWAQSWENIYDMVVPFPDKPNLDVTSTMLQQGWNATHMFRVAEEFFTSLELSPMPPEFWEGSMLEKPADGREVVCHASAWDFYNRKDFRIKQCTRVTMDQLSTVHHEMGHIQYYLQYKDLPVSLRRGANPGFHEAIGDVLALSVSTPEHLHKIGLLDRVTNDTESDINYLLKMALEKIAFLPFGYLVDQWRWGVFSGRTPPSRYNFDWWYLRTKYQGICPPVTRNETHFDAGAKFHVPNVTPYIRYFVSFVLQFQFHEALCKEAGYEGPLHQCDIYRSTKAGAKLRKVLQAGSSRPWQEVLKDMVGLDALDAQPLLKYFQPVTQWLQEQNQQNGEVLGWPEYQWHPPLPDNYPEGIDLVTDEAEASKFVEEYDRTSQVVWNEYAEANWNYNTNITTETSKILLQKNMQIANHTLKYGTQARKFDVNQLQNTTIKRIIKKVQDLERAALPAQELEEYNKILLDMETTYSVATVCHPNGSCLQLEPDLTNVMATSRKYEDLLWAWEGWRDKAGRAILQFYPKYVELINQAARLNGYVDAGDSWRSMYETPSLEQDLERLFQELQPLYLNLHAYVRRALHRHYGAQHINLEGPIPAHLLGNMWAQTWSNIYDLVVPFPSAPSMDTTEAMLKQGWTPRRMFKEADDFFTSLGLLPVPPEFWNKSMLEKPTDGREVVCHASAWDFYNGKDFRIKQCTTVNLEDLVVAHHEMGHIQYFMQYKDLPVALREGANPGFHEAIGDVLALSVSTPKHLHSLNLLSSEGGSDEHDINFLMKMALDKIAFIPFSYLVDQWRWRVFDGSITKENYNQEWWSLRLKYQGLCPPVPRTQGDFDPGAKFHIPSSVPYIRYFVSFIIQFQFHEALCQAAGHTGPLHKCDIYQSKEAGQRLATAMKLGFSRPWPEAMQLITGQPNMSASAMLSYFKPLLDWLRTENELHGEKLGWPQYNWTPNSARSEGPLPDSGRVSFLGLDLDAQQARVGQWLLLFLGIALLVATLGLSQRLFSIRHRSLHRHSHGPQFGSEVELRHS

Row | SMILES | IC50 [µM]
1 | COC12CC3(O)C(SC)C=CC(OC(C)=O)C3N1C(=O)C(CO)(SC)N(C)C2=O (stereo not drawn) [Compound 1, geospallin A] | 35 ± 5.2
2 | CSC1(CO)C(=O)N2C3C(OC(C)=O)C(=O)C=CC3(O)CC2(SC)C(=O)N1C (stereo not drawn) [Compound 3, geospallin C] | 29 ± 3.3
3 | CSC1C=CC(OC(C)=O)C2N3C(=O)C(CO)(SC)N(C)C(=O)C3(O)CC12O (stereo not drawn) [Compound 2, geospallin B] | 31 ± 3.3
